The values that follow are results of earlier work, collected in patent publication US6974588B1, “Transdermal patch for delivering volatile liquid drugs” (Elan Pharma International Limited, priority 1999, dated 2005).

The subject of this series is nicotine dependence. The settings on record: oral administration, literature report.

For `CNC1(C)C2CCC(C2)C1(C)C` (stereo not shown) [oral mecamylamine, mecamylamine], the “ad hoc cigarette consumption” value was “increased”.
